From US9402839B2, “Selective targeting agents for mitochondria” (University of Pittsburgh—Of the Commonwealth System of …, priority 2006, dated 2016)

Experiments:
[1] = tested on: rat ileal mucosal permeability; test: Intestinal mucosal permeability assay (FD4 clearance, everted gut sacs) after pressure-controlled hemorrhagic shock; format: in vivo; details: intraluminal
Experimental: Intestinal mucosal permeability assay. Animals were allowed access to water but not food for 24 h prior to the experiment in order to decrease the volume of intestinal contents. The rats were instrumented as described above.
A midline laparotomy was performed and the small intestine was exteriorized from the duodenojejunal junction to the ileocecal valve. A small incision was made on the antimesenteric aspect of the proximal small intestine and saline solution (1.5 ml) was injected. The bowel was ligated proximally and distally to the incision with 4-0 silk (LOOK, Reading, Pa.).
The small intestine was compressed gently in aboral direction along its length to displace intestinal contents into the colon. Starting 5 cm from the ileocecal valve, the ileum was partitioned into six contiguous water-tight segments. Each segment was 3 cm long and was bounded proximally and distally by constricting circumferential 4-0 silk sutures. Care was taken to ensure that the vascular supply to intestine was not compromised, and each segment was well-perfused.
Two randomly selected segments in each rat were injected with 0.3 ml of vehicle and served as “no treatment” controls. In order to fill the segments, a small incision was made and the solution was injected using a Teflon catheter (ABBOCATH 16Ga, ABBOTT LABORATORIES).
The remaining four other segments were injected with solutions containing either 4-hydroxy-2,2,6,6-tetramethylpiperidine-N-oxyl (TEMPOL) or one of the Gramicidin S-based compounds. Four different final concentrations of TEMPOL in normal saline were evaluated: 0.1, 1, 5 and 20 mM. The hemigramicidin-based compounds were dissolved in a mixture of dimethylsulfoxide (DMSO) and normal saline (1:99 v/v) and injected at final concentrations of 0.1, 1, 10 or 100 μM.
After the segments were loaded with saline or the test compounds, the bowel was replaced inside the peritoneal cavity and the abdominal incision was temporarily closed using Backhaus forceps.
After a 5 min stabilization period, hemorrhagic shock was induced by withdrawing blood via the jugular catheter. MAP was maintained at 30±3 mm Hg for 2 hours. The shed blood was re-infused as needed to maintain MAP within the desired range.
After 2 h of shock, the animals were euthanized with an intracardiac KCl bolus injection. The ileum was rapidly excised from the ileocecal valve to the most proximal gut segment. The tips of each segment were discarded. In order to assay caspases 3 and 7 activity and phospholipids peroxidation, mucosa samples were collected from gut segments immediately after hemorrhage and stored at −80° C. For permeability measurements, each segment was converted into an everted gut sac, as previously described by Wattanasirichaigoon et al., see Wattanasirichaigoon, S. et al., Effect of mesenteric ischemia and reperfusion or hemorrhagic shock on intestinal mucosal permeability and ATP content in rats, SHOCK, 12:127-133 (1999).
Briefly, as per the Wattanasirichaigoon protocol referenced above, the sacs were prepared in ice-cold modified Krebs-Henseleit bicarbonate buffer (“KHBB”), pH 7.4. One end of the gut segment was ligated with a 4-0 silk suture; the segment was then everted onto a thin plastic rod. The resulting gut sac was mounted on a Teflon catheter (Abbocath 16GA, Abbot Laboratories) connected to a 3 ml plastic syringe containing 1.5 ml of KHBB. The sac was suspended in a beaker containing KHBB plus fluorescein-isothiocyanate labeled dextran (average molecular mass 4 kDa; FD4; 0.1 mg/ml). This solution was maintained at 37° C., and oxygenated by bubbling with a gas mixture (O2 95%/CO2 5%). After 30 min, the fluid within the gut sac was collected. The samples were cleared by centrifugation at 2000 g for 5 min.
Fluorescence of FD4 in the solution inside the beaker and within each gut sac was measured using a fluorescence spectrophotometer (LS-50, PERKIN-ELMER, Palo Alto, Calif.) at an excitation wavelength of 492 nm and an emission wavelength of 515 nm. […]

[2] = tested on: mouse embryonic cells (MEC); format: cell-based
Experimental: Electron paramagnetic resonance (“EPR”) spectroscopy was used to monitor the cellular delivery of compounds 5a and 5b shown in FIG. 2 in mouse embryonic cells (“MEC”).
The following conditions were used during the EPR-based analysis of the integration and reduction of nitroxide Gramicidin S-peptidyl conjugates in MECs. The MECs at a concentration of 10 million MECs per mL were incubated with 10 μM of 4-AT and compound 5a, respectively. Recovered nitroxide radicals in whole cells, mitochondria, and cytosol fractions were resuspended in phosphate buffer saline (“PBS”) in the presence and absence, respectively, of 2 μM K3Fe(CN)6.

Compound: CC(C)C[C@@H](/C=C/[C@H](Cc1ccccc1)C(=O)N1CCC[C@H]1C(=O)N[C@H](C(=O)N[C@@H](CCCNC(=O)OCc1ccccc1)C(=O)NC1CC(C)(C)N([O])C(C)(C)C1)C(C)C)NC(=O)OC(C)(C)C [XJB-5-131]
- lowest effective concentration against ileal mucosal hyperpermeability [1]: 1 µM
- protection against hemorrhagic shock-induced ileal mucosal hyperpermeability ([1]; 0.1-100 μM, 2 h shock): significantly ameliorated
- potency relative to TEMPOL ([1]; gut mucosal protection): ~1000 fold
- hemorrhagic shock-induced mucosal hyperpermeability relative to control value ([1]; control segments loaded with vehicle): approximately 60%
- EPR triplet signals of nitroxide radicals in MECs and in mitochondria isolated from these cells ([2]; 10 μM, no EPR signal in the cytosolic fraction): Distinctive characteristic triplet signals of nitroxide radicals were detected
- integration and one-electron reduction in MECs (EPR signal increase upon ferricyanide) ([2]; 10 μM, with and without K3Fe(CN)6): resulted in integration and one-electron reduction
- concentration in the mitochondria of cultured mouse embryonic cells ([2]; after incubation with solutions of the compounds): concentrated in the mitochondria
